Reference: US10294202B2, “Pyrrolidinones as herbicides” (FMC Corporation, priority 2013, dated 2019)

Tests used:
[1] = test system: blackgrass; test: Test C pre-/postemergence herbicide test; assay type: in vivo, Alopecurus myosuroides; conditions: Preemergence; for Plant response rating (scale of 0 to 100), Blackgrass: 250 g ai/ha
Text: (§1) Seeds of plant species selected from blackgrass (Alopecurus myosuroides), ryegrass, Italian (Italian ryegrass, Lolium multiflorum), wheat (winter wheat, Triticum aestivum), galium (catchweed bedstraw, Galium aparine), corn (Zea mays), crabgrass, large (large crabgrass, Digitaria sanguinalis), foxtail, giant (giant foxtail, Setaria faberii), johnsongrass (Sorghum halepense), lambsquarters (Chenopodium album), morningglory (Ipomoea coccinea), nutsedge, yellow (yellow nutsedge, Cyperus esculentus), pigweed (Amaranthus retroflexus), ragweed (common ragweed, Ambrosia elatior), soybean (Glycine max), barnyardgrass (Echinochloa crus-galli), oilseed rape (Brassica napus), waterhemp (common waterhemp, Amaranthus rudis), kochia (Kochia scoparia), oat, wild (wild oat, Avena fatua), surinam grass (Brachiaria decumbens), foxtail, green (green foxtail, Setaria viridis), goosegrass (Eleusine indica), bromegrass, downy (downy bromegrass, Bromus tectorum), nightshade (eastern black nightshade, Solanum ptycanthum), cocklebur (common cocklebur, Xanthium strumarium), cupgrass, woolly (woolly cupgrass, Eriochloa villosa), bermudagrass (Cynodon dactylon), sunflower, (common oilseed sunflower, Helianthus annuus), Russian thistle (Salsola kali) and velvetleaf (Abutilon theophrasti) were planted into a blend of loam soil and sand and treated preemergence with test chemicals formulated in a non-phytotoxic solvent mixture which included a surfactant. At the same time, plants selected from these crop and weed species and also barley (winter barley, Hordeum vulgare), […]), chickweed (common chickweed, Stellaria media), deadnettle (henbit deadnettle, Lamium amplexicaule), and canarygrass (littleseed canarygrass, Phalaris minor) were planted in pots containing Redi-Earth® planting medium (Scotts Company, 14111 Scottslawn Road, Marysville, Ohio 43041) comprising spaghnum peat moss, vermiculite, wetting agent and starter nutrients and treated with postemergence applications of test chemicals formulated in the same manner. Plants ranged in height from 2 to 18 cm (1- to 4-leaf stage) for postemergence treatments. Treated plants and controls were maintained in a greenhouse for 13 to 15 days, after which time all species were compared to controls and visually evaluated. Plant response ratings, summarized in Table C, are based on a scale of 0 to 100 where 0 is no effect and 100 is complete control. A dash (-) response means no test result.

[2] = test system: wheat (winter wheat); test: Test C pre-/postemergence herbicide test; assay type: in vivo, Triticum aestivum; conditions: Preemergence
Method in brief: (§2)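 Response scores range from 0, meaning no effect, to 100, meaning complete control, assigned visually by comparison with controls roughly two weeks (13 to 15 days) after spraying. Applications were made preemergence to seeded loam–sand soil and postemergence to 1- to 4-leaf plants.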

[3] = test system: galium; test: Test C pre-/postemergence herbicide test; assay type: in vivo, Galium aparine; conditions: Preemergence; for Plant response rating (scale of 0 to 100), Galium: 250 g ai/ha
Method in brief: as §2

[4] = test system: soybean; test: Test C pre-/postemergence herbicide test; assay type: in vivo, Glycine max; conditions: Preemergence
Text: as §1

[5] = test system: oilseed rape; test: Test C pre-/postemergence herbicide test; assay type: in vivo, Brassica napus; conditions: Preemergence; for Plant response rating (scale of 0 to 100), Oilseed Rape: 250 g ai/ha
Method in brief: as §2

[6] = test system: crabgrass, large; test: Test C pre-/postemergence herbicide test; assay type: in vivo, Digitaria sanguinalis; conditions: Preemergence; for Plant response rating (scale of 0 to 100), Crabgrass, Large: 250 g ai/ha
Method in brief: as §2

[7] = test system: barnyardgrass; test: Test A pre-/postemergence herbicide test; assay type: in vivo, Echinochloa crus-galli
Method in brief: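 Scoring was visual, relative to untreated controls, on a 0–100 scale after about 10 greenhouse days. Preemergence treatment used a directed soil spray over seeded loam/sand; postemergence treatment targeted one- to two-leaf plants of 2–10 cm.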

[8] = test system: barnyardgrass; test: Test C pre-/postemergence herbicide test; assay type: in vivo, Echinochloa crus-galli; conditions: Preemergence; for Plant response rating (scale of 0 to 100; 0 is no effect, 100 is complete control), Barnyardgrass: 250 g ai/ha
Text: as §1

[9] = test system: pigweed; test: Test C pre-/postemergence herbicide test; assay type: in vivo, Amaranthus retroflexus; conditions: Preemergence
Method in brief: as §2

[10] = test system: velvetleaf; test: Test C pre-/postemergence herbicide test; assay type: in vivo, Abutilon theophrasti; conditions: Preemergence
Method in brief: as §2

[11] = test system: foxtail, giant; test: Test C pre-/postemergence herbicide test; assay type: in vivo, Setaria faberii; conditions: Preemergence; for Plant response rating (scale of 0 to 100), Foxtail, Giant: 250 g ai/ha
Text: as §1

[12] = 62 g ai/ha, scale 0 to 100 (0 no effect, 100 complete control)
[13] = 125 g ai/ha, scale 0 to 100 (0 no effect, 100 complete control)
[14] = 31 g ai/ha, scale 0 to 100, 0 is no effect and 100 is complete control

O=C1NCC(c2ccc(OC(F)F)cc2)C1C(=O)Nc1cccc(F)c1F (racemic) [Compound 350]
80: Plant response rating, Oilseed Rape ([5]; 125 g ai/ha, scale 0 to 100) | Plant response rating, Pigweed ([9]; 125 g ai/ha, scale 0 to 100)
70: Oilseed Rape plant response rating [5, 12] | Plant response rating, Barnyardgrass ([7]; Postemergence, 125 g ai/ha, visual rating on 0 to 100 scale (0 no effect, 100 complete control), approx. 10 days)
50: Plant response rating, Blackgrass ([1]; 125 g ai/ha, scale 0 to 100)
10: Pigweed plant response rating [9, 12]
90: Plant response rating, Galium ([3]; 125 g ai/ha, scale 0 to 100) | Plant response rating (scale of 0 to 100), Galium [3] | Crabgrass, Large plant response rating [6, 12] | Plant response rating, Crabgrass, Large ([6]; 125 g ai/ha, scale 0 to 100) | Plant response rating (scale of 0 to 100), Crabgrass, Large [6] | Plant response rating, Crabgrass, Large ([6]; 31 g ai/ha, scale 0 to 100) | Plant response rating, Barnyardgrass ([7]; Postemergence, 500 g ai/ha, 0 to 100 scale (0 no effect, 100 complete control)) | Plant response rating, Barnyardgrass ([7]; Preemergence, 125 g ai/ha, 0 to 100 scale where 0 is no effect and 100 is complete control) | Barnyardgrass plant response rating ([7]; Preemergence, 500 g ai/ha, visual rating on 0 to 100 scale (0 no effect, 100 complete control)) | Barnyardgrass plant response rating [8, 12] | Plant response rating, Barnyardgrass [8, 13] | Plant response rating (scale of 0 to 100; 0 is no effect, 100 is complete control), Barnyardgrass [8] | Foxtail, Giant plant response rating [11, 12] | Plant response rating, Foxtail, Giant ([11]; 125 g ai/ha, scale 0 to 100) | Plant response rating (scale of 0 to 100), Foxtail, Giant [11]
75: Plant response rating, Barnyardgrass ([8]; 31 g ai/ha, scale 0 to 100)
5: Plant response rating, Oilseed Rape ([5]; 31 g ai/ha, scale 0 to 100)
55: Plant response rating (scale of 0 to 100), Blackgrass [1]
30: Plant response rating, Galium ([3]; 31 g ai/ha, scale 0 to 100)
85: Galium plant response rating [3, 12] | Plant response rating (scale of 0 to 100), Oilseed Rape [5] | Plant response rating, Foxtail, Giant ([11]; 31 g ai/ha, scale 0 to 100)
0: Blackgrass plant response rating [1, 12] | Plant response rating, Blackgrass ([1]; 31 g ai/ha, scale 0 to 100) | Wheat plant response rating [2, 12] | Plant response rating, Wheat ([2]; 125 g ai/ha, scale 0 to 100) | Plant response rating, Wheat ([2]; 31 g ai/ha, scale 0 to 100) | Soybean plant response rating [4, 12] | Plant response rating, Soybean ([4]; 125 g ai/ha, scale 0 to 100) | Plant response rating, Soybean ([4]; 31 g ai/ha, scale 0 to 100) | Plant response rating, Pigweed ([9]; 31 g ai/ha, scale 0 to 100) | Velvetleaf plant response rating [10, 12] | Plant response rating, Velvetleaf ([10]; 125 g ai/ha, scale 0 to 100) | Plant response rating, Velvetleaf ([10]; 31 g ai/ha, scale 0 to 100)

O=C1NCC(c2ccc(Cl)cc2)C1C(=O)Nc1cccc(F)c1F (stereo not drawn) [Compound 218]
10: Plant response rating, Blackgrass ([1]; 62 g ai/ha, scale 0 to 100) | Plant response rating (scale of 0 to 100), Wheat ([2]; 250 g ai/ha)
95: Plant response rating, Barnyardgrass [8, 13] | Plant response rating (scale of 0 to 100; 0 is no effect, 100 is complete control), Barnyardgrass [8] | Plant response rating (scale of 0 to 100), Foxtail, Giant [11]
60: Oilseed Rape plant response rating [5, 12] | Plant response rating, Barnyardgrass ([7]; Postemergence, 125 g ai/ha, 0 to 100 scale, 0 is no effect, 100 is complete control)
85: Plant response rating, Galium [3, 13] | Plant response rating (scale of 0 to 100), Pigweed ([9]; 250 g ai/ha) | Foxtail, Giant plant response rating [11, 14]
75: Plant response rating, Pigweed [9, 13]
15: Plant response rating, Velvetleaf [10, 13]
80: Plant response rating (scale of 0 to 100), Blackgrass [1] | Plant response rating, Barnyardgrass ([7]; 125 g ai/ha, visual rating, 0 to 100 scale, 0 no effect, 100 complete control, approximately 10 days, preemergence) | Barnyardgrass plant response rating [8, 14]
100: Plant response rating, Crabgrass, Large [6, 13] | Plant response rating (scale of 0 to 100), Crabgrass, Large [6]
50: Plant response rating, Blackgrass [1, 13] | Pigweed plant response rating [9, 12]
5: Soybean plant response rating [4, 12] | Pigweed plant response rating [9, 14]
0: Blackgrass plant response rating [1, 14] | Wheat plant response rating [2, 14] | Wheat plant response rating [2, 12] | Plant response rating, Wheat [2, 13] | Galium plant response rating [3, 14] | Galium plant response rating [3, 12] | Soybean plant response rating [4, 14] | Oilseed Rape plant response rating [5, 14] | Velvetleaf plant response rating [10, 14] | Velvetleaf plant response rating [10, 12]
20: Plant response rating (scale of 0 to 100), Soybean ([4]; 250 g ai/ha) | Plant response rating, Oilseed Rape [5, 13]
90: Plant response rating (scale of 0 to 100), Galium [3] | Crabgrass, Large plant response rating [6, 14] | Crabgrass, Large plant response rating [6, 12] | Barnyardgrass plant response rating (0 to 100 scale, 0 is no effect, 100 is complete control) ([7]; Postemergence, 500 g ai/ha) | Plant response rating, Barnyardgrass ([7]; preemergence, 500 g ai/ha, 0 to 100 scale, 0 is no effect and 100 is complete control) | Plant response rating, Barnyardgrass ([8]; 62 g ai/ha, scale 0 to 100) | Foxtail, Giant plant response rating [11, 12] | Plant response rating, Foxtail, Giant [11, 13]
40: Plant response rating, Soybean [4, 13] | Plant response rating (scale of 0 to 100), Velvetleaf ([10]; 250 g ai/ha)
70: Plant response rating (scale of 0 to 100), Oilseed Rape [5]
